Experiments:
[1] = test system: MDCK; assay: Efflux ratio of permeability from […] side of wild type MDCK2 cells; format: ADME, cell-based, Canis lupus familiaris; conditions: dog
[2] = test system: MDCK; assay: Efflux ratio of permeability from […] side of MDCK2 cells over expressing human Pgp; format: ADME, cell-based, Canis lupus familiaris; conditions: dog
[3] = biological target: Beta-secretase 1 (Homo sapiens, UniProt P56817); assay: Inhibition of BACE1
[4] = Intrinsic clearance in human liver microsomes; format: ADME, Microsome
[5] = biological target: T1, Renin (Homo sapiens, UniProt P00797); assay: Inhibition of renin
T1 sequence (P00797 whole entry): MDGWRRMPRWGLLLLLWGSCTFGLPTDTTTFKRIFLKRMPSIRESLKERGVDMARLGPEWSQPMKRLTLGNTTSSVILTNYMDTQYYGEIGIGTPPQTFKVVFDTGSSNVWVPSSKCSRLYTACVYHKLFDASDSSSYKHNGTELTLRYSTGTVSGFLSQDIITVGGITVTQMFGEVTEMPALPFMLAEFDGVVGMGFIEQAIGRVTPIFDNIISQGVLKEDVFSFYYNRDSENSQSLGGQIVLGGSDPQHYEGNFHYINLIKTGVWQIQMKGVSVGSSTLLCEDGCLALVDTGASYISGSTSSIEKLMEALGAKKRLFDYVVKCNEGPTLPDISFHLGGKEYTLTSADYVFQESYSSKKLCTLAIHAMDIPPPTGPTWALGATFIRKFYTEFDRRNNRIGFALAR

[6] = biological target: Cathepsin D (Homo sapiens, UniProt P07339); assay: Inhibition of cathepsin D
[7] = biological target: T1, Renin; assay: Inhibition of human plasma renin; format: cell-free
[8] = test system: human Pgp; assay: Apparent permeability across MDCK cells transfected with human Pgp; format: ADME, cell-based, Canis lupus familiaris; conditions: dog, MDCK-MDR1
[9] = Apparent permeability across wild type MDCK cells; format: ADME, cell-based, Canis lupus familiaris; conditions: dog

Beta-secretase 1, sequence (P56817 whole entry): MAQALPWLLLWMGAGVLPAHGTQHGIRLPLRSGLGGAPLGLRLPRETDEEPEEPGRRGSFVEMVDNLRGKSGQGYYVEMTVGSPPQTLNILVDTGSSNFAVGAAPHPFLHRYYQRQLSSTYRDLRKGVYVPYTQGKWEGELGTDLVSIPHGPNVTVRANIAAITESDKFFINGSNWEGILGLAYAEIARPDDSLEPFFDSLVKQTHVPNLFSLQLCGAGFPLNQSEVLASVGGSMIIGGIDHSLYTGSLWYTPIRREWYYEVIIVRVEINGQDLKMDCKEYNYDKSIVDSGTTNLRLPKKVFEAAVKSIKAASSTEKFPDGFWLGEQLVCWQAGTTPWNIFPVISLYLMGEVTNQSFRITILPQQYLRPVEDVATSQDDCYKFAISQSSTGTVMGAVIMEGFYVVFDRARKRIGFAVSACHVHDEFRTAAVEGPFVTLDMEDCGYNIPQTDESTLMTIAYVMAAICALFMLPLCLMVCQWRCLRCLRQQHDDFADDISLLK
Cathepsin D, sequence (P07339 65-162 limits assumed): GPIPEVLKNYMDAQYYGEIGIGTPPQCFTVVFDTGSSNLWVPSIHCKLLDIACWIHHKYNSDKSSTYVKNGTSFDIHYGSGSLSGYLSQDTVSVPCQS
Cathepsin D, sequence (P07339 169-412 limits assumed): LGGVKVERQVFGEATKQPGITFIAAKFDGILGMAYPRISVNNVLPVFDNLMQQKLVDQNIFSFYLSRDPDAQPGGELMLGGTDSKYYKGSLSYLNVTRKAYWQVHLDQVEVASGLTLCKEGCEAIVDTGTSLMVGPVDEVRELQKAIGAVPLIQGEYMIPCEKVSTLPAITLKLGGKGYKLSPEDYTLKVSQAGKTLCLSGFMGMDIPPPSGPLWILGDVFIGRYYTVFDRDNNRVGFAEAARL

IC50 [3] [nM] | Ki [5] [nM] | Ki [6] [nM] | Compound | other results
 |  |  | COCCCOc1cc(C[C@@H](C[C@H](N)[C@@H](O)C[C@H](C(=O)NCC(C)(C)C(N)=O)C(C)C)C(C)C)ccc1OC | Ratio [1]: 0.7; Ratio [2]: 1.5
30 | 21 | 3.3 | CC(C)[C@H](C[C@H](O)[C@H](COCc1ccccc1)NC(=O)c1cc(C(=O)N[C@H](C)c2ccccc2)cc(N(C)S(C)(=O)=O)c1)C(=O)N[C@H](C(=O)NCc1ccccc1)C(C)C | microsomal CLint [4]: 260 µL/min/mg; IC50 ([7]; read-out: IC50): 38 nM
3700 |  | 200 | CC(C)CNC(=O)[C@@H](C[C@H](O)[C@@H]1COCc2cccc(c2)C(c2ccccc2)NC(=O)c2cc(cc(N(C)S(C)(=O)=O)c2)C(=O)N1)C(C)C (some centres not stated) | Papp [8]: 0.1 ×10⁻⁶ cm/s; Papp [9]: 0.1 ×10⁻⁶ cm/s; IC50 [7]: 56 nM
> 10000 | 340 | 1700 | CNC(=O)[C@@H](C[C@H](O)[C@@H]1COCc2cccc(c2)C(c2ccccc2)NC(=O)c2cc(cc(N(C)S(C)(=O)=O)c2)C(=O)N1)C(C)C (some centres not stated) | 
3100 | 130 | 760 | COc1ccc(C2NC(=O)c3cc(cc(N(C)S(C)(=O)=O)c3)C(=O)N[C@H]([C@@H](O)C[C@H](C(=O)NCC(C)C)C(C)C)COCc3cccc2c3)cc1 (some centres not stated) | 
1900 | 450 | 460 | COCCCC1NC(=O)c2cc(cc(N(C)S(C)(=O)=O)c2)C(=O)N[C@H]([C@@H](O)C[C@H](C(=O)NCC(C)C)C(C)C)COCc2cccc1c2 (some centres not stated) | 
> 10000 | > 5000 | > 5000 | COCCOC1CCc2cc(cc(N(C)S(C)(=O)=O)c2)C(=O)N[C@H]([C@@H](O)C[C@H](C(=O)NCC(C)C)C(C)C)COCc2cccc1c2 (some centres not stated) | 
> 10000 | 940 | > 5000 | COCCOC1CCCc2cc(cc(N(C)S(C)(=O)=O)c2)C(=O)N[C@H]([C@@H](O)C[C@H](C(=O)NCC(C)C)C(C)C)COCc2cccc1c2 (some centres not stated) | 

Source: ChEMBL document CHEMBL1641535, “Design and synthesis of potent macrocyclic renin inhibitors” (Bioorg Med Chem Lett, 2011)
